Assay: xn = mol fraction of the nth substance listed
Conditions: 93.2 kPa

NC=O + CCCC[n+]1ccn(C)c1.F[P-](F)(F)(F)(F)F
x2 = 0
Conditions | speed of sound [m/s]
288.15 K | 1619
298.15 K | 1598
303.15 K | 1588

CCCC[n+]1ccn(C)c1.F[P-](F)(F)(F)(F)F + NC=O
speed of sound [m/s]
Conditions | 288.15 K | 293.15 K | 298.15 K | 303.15 K
x1 = 0.0502 | 1587 | 1576 | 1565 | 1554
x1 = 0.0995 | 1563 | 1552 | – | 1529
x1 = 0.1488 | 1545 | 1534 | 1522 | 1511
x1 = 0.2006 | – | – | 1508 | 1497
x1 = 0.3001 | 1513 | 1501 | – | 1478
x1 = 0.3821 | – | 1491 | 1479 | 1468
x1 = 0.4985 | 1494 | 1482 | 1470 | 1458
x1 = 0.595 | – | 1476 | 1464 | –
x1 = 0.6976 | 1484 | – | – | 1448
x1 = 0.7792 | 1482 | – | – | 1445
x1 = 0.8902 | 1480 | 1467 | 1454 | 1442
x1 = 1 | 1478 | 1464 | – | 1439
